Like-named read-outs stand apart in the source and are kept apart here.
Key:
CDK4 = CDK4 (Homo sapiens (Human), UniProt P11802); assay: Cdk4 and 6 Enzymatic Inhibition Assay (radiometric 33PanQinase, Ki determination); assay type: biochemical
Protocol: (§1) 10 distinct concentrations were prepared, with a dilution endpoint of 6×10^−9 M in 100% DMSO. 100% DMSO was used as a control. 10 μL from each of the serial dilutions were aliquoted into separate wells of a 96-well plate and 90 μL of water were added to each of those wells. The plate was shaken thoroughly, and 5 μL from each of the plate's wells were transferred into wells of the assay plate. The final volume of wells in the assay plate was 50 μL. A11 compounds were tested at 10 assay concentrations in the range from 2×10^−6 M to 6×10^−11 M. The final DMSO concentration in the wells of the assay plate was 1% in all cases.
(§2) A radiometric protein kinase assay (33PanQinase® Activity Assay) was used for measuring the kinase activity of six protein kinases. A11 kinase assays were performed in 96-well FlashPlates™ from PerkinElmer (Boston, MA, USA). The assay for all protein kinases contained 70 mM HEPES-NaOH pH 7.5, 3 mM MgCl2, 3 mM MnCl2, 3 μM Na-orthovanadate, 1.2 mM DTT, 50 μg/mL PEG20000, ATP [γ-33P]-ATP (approx. 9×1005 cpm per well), protein kinase and substrate. The reaction cocktails were incubated at 30° C. for 60 minutes. The reaction was stopped with 50 μL of 2% (v/v) H3PO4, and plates were aspirated and washed two times with 200 μL 0.9% (w/v) NaCl. Incorporation of ^33Pi was determined with a microplate scintillation counter (Microbeta, Wallac).

CDK6 = CDK6 (Homo sapiens (Human), UniProt Q00534); assay: as above; assay type: biochemical
CDK6, sequence (Q00534 whole entry): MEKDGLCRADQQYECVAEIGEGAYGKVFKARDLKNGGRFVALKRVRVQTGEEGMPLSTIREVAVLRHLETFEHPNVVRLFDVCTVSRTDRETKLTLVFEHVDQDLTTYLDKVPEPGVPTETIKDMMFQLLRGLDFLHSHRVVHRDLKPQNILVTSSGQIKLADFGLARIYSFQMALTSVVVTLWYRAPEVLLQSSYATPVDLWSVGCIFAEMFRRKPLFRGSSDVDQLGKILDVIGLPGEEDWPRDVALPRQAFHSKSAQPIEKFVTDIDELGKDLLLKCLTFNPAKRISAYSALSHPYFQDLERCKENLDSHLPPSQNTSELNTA
CDK6, sequence (P24385 whole entry partner): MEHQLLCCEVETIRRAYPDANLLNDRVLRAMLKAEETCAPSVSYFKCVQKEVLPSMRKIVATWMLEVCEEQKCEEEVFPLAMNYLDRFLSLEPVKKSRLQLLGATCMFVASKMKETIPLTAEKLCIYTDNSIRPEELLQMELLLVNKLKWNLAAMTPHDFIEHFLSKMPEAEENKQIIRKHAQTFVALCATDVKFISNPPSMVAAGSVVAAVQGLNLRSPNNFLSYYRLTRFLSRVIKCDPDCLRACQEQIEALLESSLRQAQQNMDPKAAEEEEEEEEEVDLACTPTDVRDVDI
Protocol: as §1, §2

[1] = test system: drug-sensitive cell lines of Table 2 (EFM-19, MDA-MB-453, T-47D, ZR-75-1, NCI-H441, OVTOKO, NCI-H1838); assay: Cell Line Growth Retardation Assay, sensitive cohort; assay type: cell-based, human; conditions: for IC50: geometric mean over sensitive cohort, 6 days growth, read-out: AvgSensIC50; for Ther Window: average IC50 drug-resistant group divided by average IC50 drug-sensitive group
Protocol: (§3) Cells were seeded at densities of 1,000-5,000 cells per well in 48-well tissue culture plates. After a 24 hours rest period, cells were treated with compound at 10 μM, 2 μM, 0.4 μM, 0.08 μM, 0.016 μM, and 0.0032 μM. A group of cells were treated with the vehicle in which the compound was prepared and served as a control. The cells were grown in the presence of compounds for 6 days and were counted on day 0 and day 6. A11 cell counting was performed using a Synentec Cellavista plate imager. […] Growth inhibition was calculated as a ratio of cell population doublings in the presence of compound versus the absence of compound. […] IC50 values for each compound (see Table 3; reported in μM) were calculated by fitting curves to data points from each dose-response assay using the Proc NLIN function in SAS for Windows version 9.2 (SAS Institute, Inc.).
(§4) These sensitive and resistant cohorts were interrogated for response to each compound, and IC50s were calculated for each cell line using the same technique described above. Average IC50s for the sensitive and resistant cohorts were calculated as geometric means of the group. “Therapeutic Window” for each compound was calculated by dividing the average IC50 for the drug-resistant group by the average IC50 for the drug-sensitive group.

[2] = test system: drug-resistant cell lines of Table 2 (NCI-H1437, OV207, HCC1806, NCI-H2172); assay: Cell Line Growth Retardation Assay, resistant cohort; assay type: cell-based, human; conditions: geometric mean over resistant cohort, 6 days growth, read-out: AvgResIC50
Protocol: as §3, §4

CDK4, sequence (P11802 whole entry): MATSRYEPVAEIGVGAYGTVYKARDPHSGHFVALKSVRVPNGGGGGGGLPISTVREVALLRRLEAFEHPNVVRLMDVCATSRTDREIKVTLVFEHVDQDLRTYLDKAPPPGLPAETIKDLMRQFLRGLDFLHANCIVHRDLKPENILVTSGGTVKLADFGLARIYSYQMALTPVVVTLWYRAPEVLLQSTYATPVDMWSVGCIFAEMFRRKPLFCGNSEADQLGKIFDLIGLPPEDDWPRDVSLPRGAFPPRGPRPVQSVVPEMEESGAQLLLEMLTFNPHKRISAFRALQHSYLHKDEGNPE
CDK4, sequence (P24385 whole entry partner): as the sequence (P24385 whole entry partner) above

Row | SMILES | Ki (CDK4) [nM] | Ki (CDK6) [nM] | IC50 ([1]; Homo sapiens, […]) [nM] | Ther Window [1] | IC50 ([2]; Homo sapiens, […]) [nM] | IC50 [1] [nM] | IC50 [2] [nM]
1 | Cc1nc2c(F)cc(-c3nc(Nc4ccc(CN5CC6(C5)CC(F)(F)C6)cn4)ncc3F)cc2n1C(C)C [Compound A64, N-(5-((6,6-difluoro-2-azaspiro[3.3]heptan-2-yl)methyl)pyridin-2-yl)-5-fluoro-4-(4-fluoro-1-isopropyl-2-methyl-1H-benzo[d]imidazol-6-yl)pyrimidin-2-amine] | 0.9 | 4.53 | 150 | 4.87 | 730 |  | 
2 | Cc1nc2c(F)cc(-c3nc(Nc4ccc(CN5CCO[C@@]6(CCNC6)C5)cn4)ncc3F)cc2n1C(C)C [Compound A34, (R)—N-(5-((6-oxa-2,9-diazaspiro[4.5]decan-9-yl)methyl)pyridin-2-yl)-5-fluoro-4-(4-fluoro-1-isopropyl-2-methyl-1H-benzo[d]imidazol-6-yl)pyrimidin-2-amine] |  |  | 200 | 5.02 | 1000 |  | 
3 | CCN1CCN(Cc2ccc(Nc3ncc(F)c(-c4cc(F)c5nc(C)n(C(C)C)c5c4)n3)nc2)CC1 [Abemaciclib FB, Abemaciclib, reference compound] |  |  |  | 6.73 |  | 100 | 670
4 | Cc1nc2c(F)cc(-c3nc(Nc4ccc(CN5CCO[C@](C)(CC(=O)N6CC(F)(F)C6)C5)cn4)ncc3F)cc2n1C(C)C [Compound A56, (R)-1-(3,3-difluoroazetidin-1-yl)-2-(4-((6-((5-fluoro-4-(4-fluoro-1-isopropyl-2-methyl-1H-benzo[d]imidazol-6-yl)pyrimidin-2-yl)amino)pyridin-3-yl)methyl)-2-methylmorpholin-2-yl)ethan-1-one] | 2.4 | 14.8 | 260 | 3.76 | 1000 |  | 
5 | Cc1nc2c(F)cc(-c3nc(Nc4ccc(CN5CCOC(C)(CC(C)N(C)C)C5)cn4)ncc3F)cc2n1C(C)C (centres unmarked) [Compound A25] | 0.8 | 3.47 |  | 6.52 |  | 120 | 790
6 | Cc1nc2c(F)cc(-c3nc(Nc4ccc(CN5CCOC(C)(CO)C5)cn4)ncc3F)cc2n1C(C)C (centres unmarked) [Compound A51] | 8 | 38.4 | 620 | 1.62 | 1000 |  | 
7 | Cc1nc2c(F)cc(-c3nc(Nc4ccc(CN5CCO[C@@](C)(C[C@@H](C)O)C5)cn4)ncc3F)cc2n1C(C)C (single isomer, unassigned) [Compound A52] | 3.55 | 15.4 | 350 | 2.82 | 1000 |  | 
8 | Cc1nc2c(F)cc(-c3nc(Nc4ccc(CN5CCO[C@]6(CCNC6)C5)cn4)ncc3F)cc2n1C(C)C [Compound A35] |  |  | 190 | 5.36 | 1000 |  | 
9 | Cc1nc2c(F)cc(-c3nc(Nc4ccc(CN5CCOC(C)(C)C5)cn4)ncc3F)cc2n1C(C)C [Compound A48] | 1.77 | 1.08 | 640 | 1.56 | 1000 |  | 
10 | Cc1nc2c(F)cc(-c3nc(Nc4ccc(CN5CC6(CCC6)C5)cn4)ncc3F)cc2n1C(C)C [Compound A63, N-(5-((2-azaspiro[3.3]heptan-2-yl)methyl)pyridin-2-yl)-5-fluoro-4-(4-fluoro-1-isopropyl-2-methyl-1H-benzo[d]imidazol-6-yl)pyrimidin-2-amine] | 0.75 | 3.14 | 100 | 5.03 | 500 |  | 
11 | Cc1nc2c(F)cc(-c3nc(Nc4ccc(CN5CCO[C@@]6(CCN(C(=O)OC(C)(C)C)C6)C5)cn4)ncc3F)cc2n1C(C)C [Compound A41, tert-butyl (S)-9-((6-((5-fluoro-4-(4-fluoro-1-isopropyl-2-methyl-1H-benzo[d]imidazol-6-yl)pyrimidin-2-yl)amino)pyridin-3-yl)methyl)-6-oxa-2,9-diazaspiro[4.5]decane-2-carboxylate] | 11.3 | 73.9 |  |  |  |  | 
12 | Cc1nc2c(F)cc(-c3nc(Nc4ccc(CN5CCO[C@@](C)(C[C@H](C)O)C5)cn4)ncc3F)cc2n1C(C)C (single isomer, unassigned) [Compound A53] | 2.49 | 11.9 | 210 | 4.85 | 1000 |  | 
13 | Cc1nc2c(F)cc(-c3nc(Nc4ccc(CN5CCO[C@]6(CCN(C(=O)OC(C)(C)C)C6)C5)cn4)ncc3F)cc2n1C(C)C [Compound A42] | 6.47 | 34.9 |  |  |  |  | 
14 | Cc1nc2c(F)cc(-c3nc(Nc4ccc(CN5CCO[C@](C)(CC(=O)N6CCC6)C5)cn4)ncc3F)cc2n1C(C)C [Compound A58, (R)-1-(azetidin-1-yl)-2-(4-((6-((5-fluoro-4-(4-fluoro-1-isopropyl-2-methyl-1H-benzo[d]imidazol-6-yl)pyrimidin-2-yl)amino)pyridin-3-yl)methyl)-2-methylmorpholin-2-yl)ethan-1-one] | 2.64 | 19.8 | 340 | 2.94 | 1000 |  | 
15 | Cc1nc2c(F)cc(-c3nc(Nc4ccc(CN5CCOC6(CCOC6)C5)cn4)ncc3F)cc2n1C(C)C (centres unmarked) [Compound A40] | 2.27 | 7.99 | 450 | 2.18 | 980 |  | 
16 | CCOCC[C@]1(C)CN(Cc2ccc(Nc3ncc(F)c(-c4cc(F)c5nc(C)n(C(C)C)c5c4)n3)nc2)CCO1 [Compound A54] | 26.9 | 108 | 1000 | 1.00 | 1000 |  | 
17 | Cc1nc2c(F)cc(-c3nc(Nc4ccc(CN5CCOC(C)(CC(C)N(C)C)C5)cn4)ncc3F)cc2n1C(C)C (centres unmarked) [Compound A24] | 0.04 | 0.16 |  | 3.02 |  | 40 | 130
18 | CCN(CC)C(=O)C[C@]1(C)CN(Cc2ccc(Nc3ncc(F)c(-c4cc(F)c5nc(C)n(C(C)C)c5c4)n3)nc2)CCO1 [Compound A57, (R)-2-(4-((6-((5-fluoro-4-(4-fluoro-1-isopropyl-2-methyl-1H-benzo[d]imidazol-6-yl)pyrimidin-2-yl)amino)pyridin-3-yl)methyl)-2-methylmorpholin-2-yl)-N,N-diethylacetamide] | 3.91 | 24 | 390 | 2.56 | 1000 |  | 
19 | Cc1nc2c(F)cc(-c3nc(Nc4ccc(CN5CCOC(C)(CCN(C)C)C5)cn4)ncc3F)cc2n1C(C)C (centres unmarked) [Compound A4] | 1.16 | 5.09 | 160 | 5.80 | 960 |  | 
20 | CCCC1(C)CN(Cc2ccc(Nc3ncc(F)c(-c4cc(F)c5nc(C)n(C(C)C)c5c4)n3)nc2)CCO1 (centres unmarked) [Compound A46] | 5.08 | 1.95 | 790 | 1.26 | 1000 |  | 
21 | C=CC[C@@]1(C)CN(Cc2ccc(Nc3ncc(F)c(-c4cc(F)c5nc(C)n(C(C)C)c5c4)n3)nc2)CCO1 [Compound A45, (S)—N-(5-((2-allyl-2-methylmorpholino)methyl)pyridin-2-yl)-5-fluoro-4-(4-fluoro-1-isopropyl-2-methyl-1H-benzo[d]imidazol-6-yl)pyrimidin-2-amine] | 3.43 | 1.43 | 780 | 1.29 | 1000 |  | 
22 | Cc1nc2c(F)cc(-c3nc(Nc4ccc(CN5CCC56COC6)cn4)ncc3F)cc2n1C(C)C [Compound A61, N-(5-((6-oxa-1-azaspiro[3.3]heptan-1-yl)methyl)pyridin-2-yl)-5-fluoro-4-(4-fluoro-1-isopropyl-2-methyl-1H-benzo[d]imidazol-6-yl)pyrimidin-2-amine] | 1.53 | 9.53 | 220 | 4.27 | 940 |  | 
